According to US20260232740A1, “COMBINATIONS COMPRISING VITAMIN B2 AND LACTOBACILLUS RHAMNOSUS” (DSM IP Assets B.V., priority 2022, published 2026):

How the values were obtained:
Bifidobacteriaceae = assay: Long-term SHIME fermentation (colon model), 16S rRNA gene sequencing: relative abundance of Bifidobacteriaceae in mucus of transverse colon; set-up: species or system human; details: relative abundance (%), end of three-week treatment vs end of control period (n=3), probiotic 1*1010 CFU/reactor, vitamin B2 10 mg/day, p<0.05
Excerpt: (§1) The typical reactor setup of the SHIMER, representing the gastrointestinal tract of the adult human, was described by Molly et al. (1993) Applied Microbiology and Biotechnology 39 (2): 254-258. Inoculum preparation, retention time, pH, temperature settings and reactor feed composition were previously described by Possemiers et al. (2004) FEMS Microbiol Ecol. 49 (3): 495-507. Compared to the typical setup of the SHIME, the long-term SHIME experiment used for this example included some adaptations. In one reactor, at first, the conditions of the stomach were simulated, before being changed by the computer to conditions simulating the small intestine. […]
(§2) Samples for quantitative 16S-targeted Illumina sequencing were collected 3×/week during the last week of the control and treatment period. […] The obtained high-resolution proportional phylogenetic information (i.e., proportional abundances (%)) was combined with an accurate quantification of total bacterial cells via flow cytometry to obtain quantitative data at phylum, family, and species level. […] Samples were analyzed on a BD Facsverse (BDBiosciences, Erembodegem, Belgium) using the high-flow-rate setting and bacteria were separated from medium debris and signal noise by applying a threshold level of 200 on the SYTO channel. […]

[1] = system: Bifidobacterium adolescentis; assay: Long-term SHIME fermentation (colon model), 16S rRNA gene sequencing and flow cytometry: levels of Bifidobacterium adolescentis in lumen of transverse colon; set-up: species or system human; details: average levels (log cells/mL), end of three-week treatment vs end of control period (n=3), probiotic 1*1010 CFU/reactor, vitamin B2 10 mg/day, p<0.05
Excerpt: as §1, §2

Lactobacillus rhamnosus GG
abundance of Bifidobacteriaceae compared to the control (Bifidobacteriaceae): did not significantly change | abundance of Bifidobacterium adolescentis compared to the control [1]: did not significantly change
